Source: patent US20260335277A1, “CHLOROTONIL DERIVATIVES” (priority 2023, published 2026)
Converted amounts (≈) assume the structure as drawn. Where two headings read alike, the source gives them in different places.

Key:
[1] = cited from earlier work
[2] = tested on: clinical isolates of S. aureus; test: MIC 50/90 profiling in multidrug-resistant clinical isolates; format: cell-based; details: Staphylococcus aureus; S. aureus clinical isolates (n = 100)
Protocol: (§1) Minimal inhibitory concentration (MIC) of the compounds in the present invention was determined using broth microdilution performed according to EUCAST guidelines (ISO20776-1:2019). S. aureus ATCC29213 and E. faecalis ATCC29212 served as quality control strains.
(§2) Activity of dehalogenil against multidrug-resistant clinical isolates of S. aureus (n=100) and Enterococcus spp. […] Compared to the standard of care (linezolid, daptomycin and tigecyclin), dehalogenil MIC90 was lowered in both pathogens by 20-40-fold with unimodal distribution indicating no pre-existing resistances.

E. faecium = test: as above; format: cell-based; details: Enterococcus faecium
Protocol: as §1, §2

[3] = tested on: mature gametocytes (stages IV and V); test: Activity against mature gametocytes (stage IV-V), bioluminescence assay; format: cell-based, P. falciparum
Protocol: Activity against gametocytes was determined using an in vitro bioluminescence assay as described previously (doi.org/10.1371/journal.pone.0035019).

zebrafish larvae = test: Toxicity in zebrafish larvae (MTC / IC50); format: in vivo; details: for Selectivity Index S. aureus: zebrafish IC50 / MIC S. aureus Newman; for Selectivity Index P. falc 3D7: zebrafish IC50 vs P. falciparum 3D7; for IC50 in zebrafish larvae: exposed 3 days post fertilization, monitored 48 h
Protocol: (§3) For toxicity screening, zebrafish larvae were exposed three days post fertilization and monitored for 48 h until five days post fertilization. All malformations and pathophysiological phenotypes were noted and used to determine the inhibitory concentration (IC50) of the respective derivative against zebrafish larvae. The selectivity index (SI) was then calculated using the IC50 and the MIC of either S. aureus or P. falciparum 3D7.

[4] = tested on: S. aureus N315 (methicillin-resistant, MRSA); test: MIC testing (broth microdilution, EUCAST); format: cell-based; details: for MIC: Staphylococcus aureus, MRSA
Protocol: as §1

S. aureus Newman = test: MIC testing (broth microdilution, EUCAST); format: cell-based; details: for MIC: Staphylococcus aureus, NEWMAN
Protocol: as §1

S. epidermidis DSM-28765 = test: MIC testing (broth microdilution, EUCAST); format: cell-based; details: for MIC S. epiderm.: S. epidermidis DSM-28765; for MIC: Staphylococcus epidermidis, DSM28765, S. epidermidis DSM-28765, read-out: MIC S. epiderm.
Protocol: as §1

[5] = tested on: E. faecium DSM-17050 (vancomycin-resistant, VRE); test: MIC testing (broth microdilution, EUCAST); format: cell-based; details: for MIC: Enterococcus faecium
Protocol: as §1

E. faecium DSM-20477 = test: MIC testing (broth microdilution, EUCAST); format: cell-based; details: for MIC E. faecium: E. faecium DSM-20477; for MIC: Enterococcus faecium, DSM20477, E. faecium DSM-20477
Protocol: as §1

E. faecalis ATCC-29212 = test: MIC testing (broth microdilution, EUCAST); format: cell-based; details: for MIC E. faecalis: E. faecalis ATCC-29212; for MIC: Enterococcus faecalis, ATCC29212, E. faecalis ATCC-29212
Protocol: as §1

[6] = Toxicity in zebrafish larvae (MTC / IC50); format: in vivo; details: zebrafish, zebrafish larvae
Protocol: as §3

Row | Structure (SMILES) | MIC MRSA [4] [µg/mL] | MIC S. aureus (S. aureus Newman) [µg/mL] | MIC S. epiderm. (S. epidermidis DSM-28765) [µg/mL] | MIC VRE [5] [µg/mL] | MIC E. faecium (E. faecium DSM-20477) [µg/mL] | MIC E. faecalis (E. faecalis ATCC-29212) [µg/mL] | MIC (E. faecalis ATCC-29212) [µg/mL] | also measured
1 | CC[C@H](C)[C@H](NC(=O)[C@H]([C@@H](C)CC)N(C)C(C)=O)C(=O)N[C@H](C(=O)N[C@@H](CC(C)C)C(=O)[C@@]1(C)CO1)[C@@H](C)O [epoxomicin] | – | – | – | – | – | – | – | toxic effects in vivo [1]: shows toxic effects in vivo
2 | CCCCCCCCCC(=O)N[C@@H](Cc1c[nH]c2ccccc12)C(=O)N[C@H](CC(N)=O)C(=O)N[C@@H](CC(=O)O)C(=O)N[C@@H]1C(=O)NCC(=O)N[C@@H](CCCN)C(=O)N[C@@H](CC(=O)O)C(=O)N[C@H](C)C(=O)N[C@@H](CC(=O)O)C(=O)NCC(=O)N[C@H](CO)C(=O)N[C@@H]([C@H](C)CC(=O)O)C(=O)N[C@@H](CC(=O)c2ccccc2N)C(=O)O[C@@H]1C [daptomycin] | – | – | – | – | – | – | – | MIC50 [2]: 0.5 µg/mL (≈ 0.309 µM); MIC90 [2]: 4 µg/mL (≈ 2.47 µM); MIC (E. faecium; read-out: MIC range): 0.5 to 4 µg/mL (≈ 0.309 to 2.47 µM); MIC50 (E. faecium; E. faecium (n = 98)): 2 µg/mL (≈ 1.23 µM); MIC90 (E. faecium; E. faecium (n = 98)): 4 µg/mL (≈ 2.47 µM)
3 | CC1=C[C@@H](C)[C@H]2[C@@H]3C(O)=C(SS)C(=O)[C@H](C)C(=O)O[C@@H](C)/C=C/C=C\[C@@H](C)[C@@H]3C=C[C@@H]2C1 [thiotonil] | 0.4 (≈ 0.843 µM) | 0.4 (≈ 0.843 µM) | 0.4 (≈ 0.843 µM) | 0.025 (≈ 0.0527 µM) | 0.025 (≈ 0.0527 µM) | 0.2 (≈ 0.421 µM) | – | IC50 [3]: 67.4 ± 8.6 nM; Selectivity Index S. aureus (zebrafish larvae): >62.5; Selectivity Index P. falc 3D7 (zebrafish larvae): >892.9
4 | C=C1C[C@H]2C=C[C@@H]3[C@@H](C(=O)C(Cl)(Cl)C(=O)[C@H](C)C(=O)O[C@@H](C)/C=C/C=C\[C@H]3C)[C@@H]2[C@H](C)C1Cl (stereo partly drawn) [ChA-9′Cl] | – | – | – | – | – | – | 0.4 (≈ 0.778 µM) | MIC [4]: 0.4 µg/mL (≈ 0.778 µM); MIC (S. aureus Newman): 0.4 µg/mL (≈ 0.778 µM); MIC (S. epidermidis DSM-28765): 0.4 µg/mL (≈ 0.778 µM); MIC [5]: 0.2 µg/mL (≈ 0.389 µM); MIC (E. faecium DSM-20477): 0.2 µg/mL (≈ 0.389 µM)
5 | CC1=C[C@@H](C)[C@H]2[C@@H]3C(=O)C(Cl)=C([O-])[C@H](C)C(=O)O[C@@H](C)/C=C/C=C\[C@@H](C)[C@@H]3C=C[C@@H]2C1.CC1=C[C@@H](C)[C@H]2[C@@H]3C(=O)C(Cl)=C([O-])[C@H](C)C(=O)O[C@@H](C)/C=C/C=C\[C@@H](C)[C@@H]3C=C[C@@H]2C1.CC1=C[C@@H](C)[C@H]2[C@@H]3C(=O)C(Cl)=C([O-])[C@H](C)C(=O)O[C@@H](C)/C=C/C=C\[C@@H](C)[C@@H]3C=C[C@@H]2C1.[Mg+2].[Na+] [ChB2, reference compound] | >3.2 | 3.2 | 3.2 | 0.8 | 0.4 | 1.6 | – | –
6 | CC1C=CC=CC(C)C2C=CC3CC4(C)OC4C(C)C3C2C(=O)CC(=O)C(C)C(=O)O1 (stereo not drawn) [Dehalogenil-Epo2] | 0.2 (≈ 0.469 µM) | 0.4 (≈ 0.938 µM) | 0.8 (≈ 1.88 µM) | 0.4 (≈ 0.938 µM) | 0.8 (≈ 1.88 µM) | 1.6 (≈ 3.75 µM) | – | IC50 in zebrafish larvae (zebrafish larvae): 1.22 µM; Selectivity Index S. aureus (zebrafish larvae): 1.30; Selectivity Index P. falc 3D7 (zebrafish larvae): 6.2
7 | CC1C=CC=CC(C)C2C=CC3CC4(C)OC4C(C)C3C2C(=O)CC(=O)C(C)C(=O)O1 (stereo not drawn) [Dehalogenil-Epo1] | 3.2 (≈ 7.5 µM) | 3.2 (≈ 7.5 µM) | 3.2 (≈ 7.5 µM) | 3.2 (≈ 7.5 µM) | 3.2 (≈ 7.5 µM) | – | 3.2 (≈ 7.5 µM) | selectivity ratio ([6]; zebrafish IC50 / MIC S. aureus Newman, read-out: Selectivity Index S. aureus): 1.31; selectivity ratio ([6]; zebrafish IC50 vs P. falciparum 3D7, read-out: Selectivity Index P. falc 3D7): 4.9; IC50 in zebrafish larvae (zebrafish larvae): 9.85 µM
8 | CC1=C[C@@H](C)[C@H]2[C@@H]3C(=O)[C@@](F)(Cl)C(=O)[C@H](C)C(=O)O[C@@H](C)/C=C/C=C\[C@@H](C)[C@@H]3C=C[C@@H]2C1 [ChA-4′F] | – | – | – | – | – | – | 1.6 (≈ 3.46 µM) | MIC [4]: 1.6 µg/mL (≈ 3.46 µM); MIC (S. aureus Newman): 0.8 µg/mL (≈ 1.73 µM); MIC (S. epidermidis DSM-28765): > 6.4 µg/mL; MIC [5]: 1.6 µg/mL (≈ 3.46 µM); MIC (E. faecium DSM-20477): 0.8 µg/mL (≈ 1.73 µM)
